Experiments:
RARα [1] = target: T1, RARα (Homo sapiens, UniProt P10276); assay: ligand binding assay, RARα; conditions: results expressed in Ki numbers, read-out: RAR Binding α
T1 sequence (P10276 1-462): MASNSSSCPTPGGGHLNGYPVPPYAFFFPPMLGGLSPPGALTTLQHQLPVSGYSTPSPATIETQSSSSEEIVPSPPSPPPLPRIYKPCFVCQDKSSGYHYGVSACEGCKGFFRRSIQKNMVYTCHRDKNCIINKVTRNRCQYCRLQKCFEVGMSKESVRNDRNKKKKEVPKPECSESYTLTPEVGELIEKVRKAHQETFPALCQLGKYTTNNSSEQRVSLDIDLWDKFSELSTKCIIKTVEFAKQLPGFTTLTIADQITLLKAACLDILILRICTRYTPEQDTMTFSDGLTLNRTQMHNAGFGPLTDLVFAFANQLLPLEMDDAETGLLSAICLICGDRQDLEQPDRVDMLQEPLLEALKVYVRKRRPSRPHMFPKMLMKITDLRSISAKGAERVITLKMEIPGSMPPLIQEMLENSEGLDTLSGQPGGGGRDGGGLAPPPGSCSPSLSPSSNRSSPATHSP
Text: (§1) A holoreceptor transactivation assay and a ligand binding assay which measure the antagonist/agonist like activity of the compounds of the invention, or their ability to bind to the several retinoid receptor subtypes, respectively, are described in published PCT Application No. WO WO93/11755 (particularly on pages 30-33 and 37-41) published on Jun. 24, 1993, the specification of which is also incorporated herein by reference. A detailed experimental procedure for holoreceptor transactivations has been described by Heyman et al. Cell 68, 397-406, (1992); Allegretto et al. J. Biol. Chem. 268, 26625-26633, and Mangelsdorf et al. The Retinoids: Biology, Chemistry and Medicine, pp 319-349, Raven Press Ltd., New York, which are expressly incorporated herein by reference. The results obtained in this assay are expressed in EC50 numbers, as they are also in the chimeric receptor transactivation assay. The results of the ligand binding assay are expressed in Ki numbers. (See Cheng et al. Biochemical Pharmacology Vol. 22 pp 3099-3108, expressly incorporated herein by reference.)
(§2) Table 1 discloses the activity of certain exemplary compounds of the invention in the above-described chimeric RAR receptor transactivation and binding assays.

RARβ [2] = target: T2, RARβ (Homo sapiens, UniProt P10826); assay: ligand binding assay, RARβ; conditions: results expressed in Ki numbers, read-out: RAR Binding β
T2 sequence (P10826 1-455): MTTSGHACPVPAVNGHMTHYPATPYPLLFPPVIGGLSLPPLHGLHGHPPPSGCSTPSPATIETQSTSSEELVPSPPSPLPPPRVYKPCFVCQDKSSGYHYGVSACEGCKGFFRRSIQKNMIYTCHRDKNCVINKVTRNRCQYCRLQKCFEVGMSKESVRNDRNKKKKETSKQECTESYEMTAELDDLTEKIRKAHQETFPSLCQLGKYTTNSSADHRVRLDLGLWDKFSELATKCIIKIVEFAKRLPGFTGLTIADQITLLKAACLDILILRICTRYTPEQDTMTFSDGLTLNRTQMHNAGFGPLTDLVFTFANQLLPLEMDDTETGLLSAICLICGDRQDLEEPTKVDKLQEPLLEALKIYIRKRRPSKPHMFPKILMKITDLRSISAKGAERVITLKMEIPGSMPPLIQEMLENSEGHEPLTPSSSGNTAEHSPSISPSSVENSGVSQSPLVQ
Text: as §1, §2

RARγ [3] = target: T3, RARγ (Homo sapiens, UniProt P13631); assay: ligand binding assay, RARγ; conditions: results expressed in Ki numbers, read-out: RAR Binding γ
T3 sequence (P13631 1-454): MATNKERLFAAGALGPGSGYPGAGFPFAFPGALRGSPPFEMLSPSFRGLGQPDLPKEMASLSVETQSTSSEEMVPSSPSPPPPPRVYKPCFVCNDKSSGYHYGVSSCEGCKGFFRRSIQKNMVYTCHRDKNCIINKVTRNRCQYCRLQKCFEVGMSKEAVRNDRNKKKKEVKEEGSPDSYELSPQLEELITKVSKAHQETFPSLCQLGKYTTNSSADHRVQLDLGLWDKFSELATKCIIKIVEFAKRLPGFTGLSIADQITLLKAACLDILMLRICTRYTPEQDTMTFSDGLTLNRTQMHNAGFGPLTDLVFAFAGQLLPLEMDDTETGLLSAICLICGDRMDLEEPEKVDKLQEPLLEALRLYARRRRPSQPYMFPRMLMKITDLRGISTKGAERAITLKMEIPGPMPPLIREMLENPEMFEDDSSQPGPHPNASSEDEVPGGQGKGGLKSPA
Text: as §1, §2

RARα [4] = target: T4, RARα (Homo sapiens, UniProt P10276); assay: chimeric receptor transactivation assay, RARα; type: cell-based; conditions: for EC50: chimeric receptor transactivation, read-out: RAR EC50 α; for % Efficiency α: percentage of maximum compared to standard TTNPB
T4 sequence (P10276 183-417 limits assumed): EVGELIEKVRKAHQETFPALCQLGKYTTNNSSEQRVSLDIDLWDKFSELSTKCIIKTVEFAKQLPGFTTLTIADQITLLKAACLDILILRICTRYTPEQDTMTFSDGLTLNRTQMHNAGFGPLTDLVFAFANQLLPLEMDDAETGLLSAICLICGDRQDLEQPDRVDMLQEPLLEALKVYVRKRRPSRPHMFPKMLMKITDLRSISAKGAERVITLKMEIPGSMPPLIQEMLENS
Method: (§3) The compounds of the invention were tested in certain assays for activity as agonists of RAR and RXR retinoid receptors. Specifically, one such assay is a chimeric receptor transactivation assay which tests for agonist-like activity in the RARα, RARβ and RARγ receptor subtypes, and which is based on work published by Feigner P. L. and Holm M. (1989) Focus, 112 is described in detail in U.S. Pat. No. 5,455,265. The specification of U.S. Pat. No. 5,455,265 is hereby expressly incorporated by reference.
as §1
(§4) Efficacy in a transactivation assay is expressed as a percentage of the maximum potency attained by the compound compared to a standard which, in this case, is the compound 4-[(1E)-2-(5,6,7,8-tetrahydro-5,5,8,8-tetramethyl-2-naphthalenyl)-1-propenyl]-benzoic acid. (TTNPB) This standard compound is described in PCT Publication WO 2002077169 A2.
as §2

RARβ [5] = target: T5, RARβ (Homo sapiens, UniProt P10826); assay: chimeric receptor transactivation assay, RARβ; type: cell-based; conditions: for EC50: chimeric receptor transactivation, read-out: RAR EC50 β; for % Efficiency β: percentage of maximum compared to standard TTNPB
T5 sequence (P10826 183-455 limits assumed): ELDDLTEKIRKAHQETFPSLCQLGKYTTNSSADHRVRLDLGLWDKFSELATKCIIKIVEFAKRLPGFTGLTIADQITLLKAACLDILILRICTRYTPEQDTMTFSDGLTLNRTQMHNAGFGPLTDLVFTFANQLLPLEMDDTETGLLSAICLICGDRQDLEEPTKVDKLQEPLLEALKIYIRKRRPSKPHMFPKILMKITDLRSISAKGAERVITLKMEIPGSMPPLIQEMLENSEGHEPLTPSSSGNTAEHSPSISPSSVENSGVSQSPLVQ
Method: as §3, §1, §4, §2

RARγ [6] = target: T6, RARγ (Homo sapiens, UniProt P13631); assay: chimeric receptor transactivation assay, RARγ; type: cell-based; conditions: for EC50: chimeric receptor transactivation, read-out: RAR EC50 γ; for % Efficiency γ: percentage of maximum compared to standard TTNPB
T6 construct: % Efficiency γ; other: percentage of maximum compared to standard TTNPB
T6 sequence (P13631 185-454 limits assumed): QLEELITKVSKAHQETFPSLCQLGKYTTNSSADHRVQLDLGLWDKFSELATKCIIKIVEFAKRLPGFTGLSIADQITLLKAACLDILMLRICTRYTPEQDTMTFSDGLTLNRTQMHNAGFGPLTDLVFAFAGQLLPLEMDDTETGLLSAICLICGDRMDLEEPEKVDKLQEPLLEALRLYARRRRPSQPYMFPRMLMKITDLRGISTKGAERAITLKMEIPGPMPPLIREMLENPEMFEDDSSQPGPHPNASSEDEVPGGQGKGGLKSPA
Method: as §3, §1, §4, §2

| Structure (SMILES) | Ki (RARα [1]) [nM] | Ki (RARβ [2]) [nM] | Ki (RARγ [3]) [nM] | EC50 (RARα [4]) [nM] | % Efficiency α (RARα [4]) [%] | EC50 (RARβ [5]) [nM] | % Efficiency β (RARβ [5]) [%] | EC50 (RARγ [6]) [nM] | % Efficiency γ (RARγ [6]) [%] |
| --- | --- | --- | --- | --- | --- | --- | --- | --- | --- |
| CC1(C)CCCc2ccc(C(C=Cc3ccc(C(=O)O)cc3)=NO)cc21 [drawing 12] | 6000 | 1200 | 5 | 2120 | 51 | 65 | 106 | 0.09 | 97 |
| CC1(C)CCCc2ccc(C(C=Cc3ccc(C(=O)O)cc3)=NO)cc21 [drawing 14] | 22000 | 4700 | 16 | > 1000 | – | 432 | 88 | 3 | 98 |
| CC1(C)CCCc2cc(C(C=Cc3ccc(C(=O)O)cc3)=NO)ccc21 [drawing 16] | 2000 | > 10000 | 6000 | > 10000 | – | > 10000 | – | > 10000 | – |
| CC1(C)CCCc2cc(C(C=Cc3ccc(C(=O)O)cc3)=NO)ccc21 [drawing 17] | 12000 | 31000 | 27000 | 12000 | 42 | 173 | 60 | 204 | 65 |
| CC1(C)CCSc2ccc(C(C=Cc3ccc(C(=O)O)cc3)=NO)cc21 [drawing 18] | 5000 | 1080 | 6 | 242 | 117 | 79 | 87 | 0.75 | 88 |
| CC1(C)CCSc2ccc(C(C=Cc3ccc(C(=O)O)cc3)=NO)cc21 [drawing 20] | 4500 | 1230 | 55 | > 1000 | – | 103 | 102 | 15 | 100 |
| CC1(C)CC(C)(C)c2cc(C(C=Cc3ccc(C(=O)O)cc3)=NO)ccc2O1 [drawing 24] | > 10000 | > 10000 | > 10000 | > 10000 | – | > 10000 | – | > 10000 | – |
| CC1(C)CC(C)(C)c2cc(C(C=Cc3ccc(C(=O)O)cc3)=NO)ccc2O1 [drawing 25] | 5000 | 5000 | 10000 | 135 | 60 | 93 | 97 | 57 | 95 |
| CC1(C)CC(C)(C)c2cc(C(C=Cc3ccc(C(=O)O)cc3)=NO)ccc21 [drawing 30] | 7000 | 17000 | 6 | 148 | 55 | 83 | 104 | 0.2 | 71 |

The next lines start with the values.

| Ki (RARα [1]) [nM] | Ki (RARβ [2]) [nM] | Ki (RARγ [3]) [nM] | EC50 (RARα [4]) [nM] | % Efficiency α (RARα [4]) [%] | EC50 (RARβ [5]) [nM] | % Efficiency β (RARβ [5]) [%] | EC50 (RARγ [6]) [nM] | % Efficiency γ (RARγ [6]) [%] | Structure (SMILES) |
| --- | --- | --- | --- | --- | --- | --- | --- | --- | --- |
| 2500 | 1300 | 3 | 441 | 81 | 31 | 102 | 0.09 | 103 | CC1(C)CCC(C)(C)c2cc(C(C=Cc3ccc(C(=O)O)cc3)=NO)ccc21 [drawing 8] |
| 2400 | 2000 | 14 | 150 | 81 | 34 | 112 | 0.37 | 114 | CC1(C)CCC(C)(C)c2cc(C(C=Cc3ccc(C(=O)O)cc3)=NO)ccc21 [drawing 9] |
| 8000 | 5000 | 4 | > 1000 | – | 53 | 84 | 0.11 | 84 | CC1(C)CCC(C)(C)c2cc(C(C=Cc3ccc(C(=O)O)cc3F)=NO)ccc21 [drawing 10] |
| 8000 | 8000 | 34 | > 1000 | – | 118 | 85 | 0.85 | 76 | CC1(C)CCC(C)(C)c2cc(C(C=Cc3ccc(C(=O)O)cc3F)=NO)ccc21 [drawing 11] |
| 6000 | 11000 | 39 | 134 | 55 | 93 | 118 | 2 | 91 | CC1(C)CC(C)(C)c2cc(C(C=Cc3ccc(C(=O)O)cc3)=NO)ccc21 [drawing 31] |
| 8000 | 17000 | 583 | > 1000 | – | 3440 | 41 | 23 | 48 | Cc1cc2c(cc1C(C=Cc1ccc(C(=O)O)cc1)=NO)C(C)(C)CCC2(C)C [drawing 36] |
